{"source": "patent US20200246364A1", "about": "“MEDICAL APPLICATION OF COMPOSITION OF FRUCTOSE-1,6-BISPHOSPHATE AND BLOOD CONCENTRATION STABILIZER THEREOF” (ZHEJIANG UNIVERSITY, priority 2017, published 2020)", "key": {"C6 [1]": {"system": "C6", "test": "Intracellular glycolytic intermediates (LC-MS/MS) and FBP in culture medium", "assay_type": "cell-based, rat", "details": "C6, 1.6 mM, 36 h", "description": "(§1) Rat glioma cell strains (C6), human glioma cell strains (U87-MG, U-251, SHG-44) and patient-derived glioma cells (tumor 1, tumor 3) were incubated in a culture medium containing 1.6 mM of trisodium fructose-1,6-bisphosphate, and after 36 h, levels of glycolytic intermediates including glucose-6-phosphate G6P, fructose-1,6-bisphosphate FBP, glyceraldehyde 3-phosphate (GAP), dihydroxyacetone phosphate (DHAP), and […] 3-phosphoglyceric acid PGA in respective cells were measured by using LC-MS/MS; and additionally, the levels of fructose-1,6-bisphosphate in each glioma cell strain at 12 h and 36 h were measured."}, "KNS-89": {"system": "KNS-89", "test": "Intracellular glycolytic intermediates (LC-MS/MS)", "assay_type": "cell-based, human", "details": "KNS-89, 1.6 mM, 36 h"}, "SHG-44 [2]": {"system": "SHG-44", "test": "Intracellular glycolytic intermediates (LC-MS/MS) and FBP in culture medium", "assay_type": "cell-based, human", "details": "SHG-44, 1.6 mM, 36 h", "description": "as §1"}, "U87-MG": {"system": "U87-MG", "test": "Intracellular glycolytic intermediates (LC-MS/MS) and FBP in culture medium", "assay_type": "cell-based, human", "details": "1.6 mM, 36 h", "description": "as §1"}, "[3]": {"system": "patient-derived glioma cells Tumor 1", "test": "Intracellular glycolytic intermediates (LC-MS/MS) and FBP in culture medium", "assay_type": "cell-based, human", "details": "Tumor 1, 1.6 mM, 36 h", "description": "as §1"}, "[4]": {"system": "patient-derived glioma cells Tumor 3", "test": "Intracellular glycolytic intermediates (LC-MS/MS) and FBP in culture medium", "assay_type": "cell-based, human", "details": "Tumor 3, 1.6 mM, 36 h", "description": "as §1"}, "glioma cells KNS-89": {"system": "glioma cells KNS-89", "test": "Lactic acid released by glioma cells (glycolysis)", "assay_type": "cell-based, human", "method": "Human glioma cell strains (U87-MG, KNS-89, SHG-44) were respectively incubated in culture media containing 0.8 mM of trisodium fructose-1,6-bisphosphate salt, and 1.6 mM of trisodium fructose-1,6-bisphosphate salt, and 1.6 mM of 2-deoxyglucose, and the contents of lactic acid as the final glycolytic product released by the cells in the culture media were measured after 12 h, 24 h, 36 h, and 48 h. […] Human glioma cell strain (U87-MG) was incubated in the culture medium containing 0.8 mM of trisodium fructose-1,6-bisphosphate salt for 1 h, 3 h, 6 h, 12 h, 24 h, 36 h, and 48 h, and level changes of key metabolic enzymes in the glycolytic pathway of cells were measured by Western Blot at the respective time points."}, "C6 [5]": {"system": "C6", "test": "Mitochondrial oxidative phosphorylation in glioma cells (ATP/ADP, NADH/NAD+, ATP)", "assay_type": "cell-based, rat"}, "SHG-44 [6]": {"system": "SHG-44", "test": "Mitochondrial oxidative phosphorylation in glioma cells (ATP/ADP, NADH/NAD+, ATP)", "assay_type": "cell-based, human"}, "C6 [7]": {"system": "C6", "test": "Glutathiones and NADPH/NADP+ (LC-MS/MS)", "assay_type": "cell-based, rat", "details": "C6, 1.6 mM, 36 h", "description": "Rat glioma cell strain (C6) and human glioma cell strain (KNS-89, SHG-44) were respectively cultured in a medium containing 1.6 mM of trisodium fructose-1,6-bisphosphate for 36 h, and important antioxidants in cells were measured by liquid-mass spectrometry (LC-MS/MS)."}, "HCT-8": {"system": "HCT-8", "test": "Cell viability, Sulforhodamine B (SRB) staining", "assay_type": "cell-based, human", "details": "Homo sapiens, HCT-8, 72 h, FBP 0.8 mM", "method": "Human intestinal cancer cell strains SW620 and HCT-8, which had been incubated for 24 hours, were respectively incubated in a medium containing 0.8 mM of trisodium fructose-1,6-bisphosphate, a medium containing 0.2 mM of metformin/100 μM of sitagliptin, and a medium containing 0.8 mM of trisodium fructose-1,6-bisphosphate and 0.2 mM of metformin/100 μM of sitagliptin for 72 h. A control group (Con) was not treated with the agent. Cell viability was determined by Sulforhodamine B (SRB) staining analysis method."}, "[8]": {"test": "Weight gain and fat accumulation caused by high-fat diet", "assay_type": "in vivo, ICR mice", "details": "high-fat diet mice", "method": "40 ICR male mice (17-19 g/per mouse) were divided into 2 groups. […] The animals of the normal group (Naive) were still fed with the basic feed, and the model animals were equally divided into 4 groups and were further fed with the high-fat diet. In addition, according to the amount of water the mice had consumed, a certain dose of the agent was dissolved in drinking water. The animals in the model group (Model) were fed with the purified water, the animals in the fructose-1,6-bisphosphate group were fed with water containing 0.18% of 8-molecule hydrate of sodium fructose-1,6-bisphosphate (equivalent to FBP 300 mg/kg), the animals in the sitagliptin group were fed with water containing 0.012% of sitagliptin phosphate salt (equivalent to STG 20 mg/kg), and the animals in the combination group were fed with water containing FBP 500 mg/kg+STG 20 mg/kg. The treatment lasted continuously for 6 weeks, the body weight, food intake and water intake were measured per week, the body weight and body length (CM) were measured on the last day of the last week, and a Lee's INDEX (Lee's INDEX=body weight (g)^(1/3) * 1000/body length (cm)) was calculated to evaluate the state of animal obesity. Then, the animals were sacrificed by cervical vertebra dislocation and the mice were dissected, the epididymal fat pad was taken and weighed, and a fat coefficient was calculated to further investigate the degree of obesity of the mice."}, "[9]": {"system": "peripheral neuralgia induced by paclitaxel", "test": "Peripheral neuralgia induced by paclitaxel, hot plate experiment", "assay_type": "in vivo, ICR mice", "description": "In this study, paclitaxel (2.8 mg/kg, 10 ml/kg) was injected intraperitoneally every other day, 4 times in total (days 1, 3, 5, 7) to induce peripheral neuralgia model in ICR female mice with a body weight of 20-24 g, and this model was used to observe the preventive effect of fructose-1,6-bisphosphate on the peripheral neuralgia caused by the chemotherapeutic agent. The paclitaxel antitumor agent is one of the first-line agents for human malignant tumors. Dose-limiting toxicity of paclitaxel mainly includes neurotoxicity and myelosuppression, the latter has been successfully overcome by using granulocyte colony-stimulating factor. However, the neurotoxicity, behaving as neuropathic pain, is still a worldwide problem, because the pain caused by this chemotherapy is not sensitive to any clinically used analgesics, and thus some patients have to reduce the dose until withdrawing the agent, which seriously affects the effect of the chemotherapy or even causes a failure of the chemotherapy. Some pains caused by the paclitaxel chemotherapy may not be eliminated immediately after the agent withdrawal, and often continues for months or even years, which seriously affects the life quality of tumor patients. In view of this, the peripheral neuralgia caused by paclitaxel is a representative pain after cancer treatment, and the animal pain model induced by paclitaxel is also representative.\nA hot plate method was used to screen mice having relatively uniform heat-sensitive responses for experiments. […]\nThe heat-sensitive response of hind paws of the mice was measured with a hot plate experiment (52° C.±0.3) at 2 pm to 4 pm every day. […] In this way, a latent period of licking or retracting the hind paws was recorded. […] After the paclitaxel injection finished, the fructose-1,6-bisphosphate was continuously administrated and the heat-sensitive responses of the animals in each group were measured. […]"}}, "data": [{"smiles": "O=C(COP(=O)(O)O)[C@@H](O)[C@H](O)[C@H](O)COP(=O)(O)O", "note": "[FBP, fructose-1,6-bisphosphate]", "values": [{"measurement": "Increase folds of intracellular DHAP (compared with the control group)", "setting": "C6 [1]", "result": 66.04, "unit": "folds"}, {"measurement": "Increase folds of intracellular F6P (compared with the control group)", "setting": "C6 [1]", "result": 19.89, "unit": "folds"}, {"measurement": "Increase folds of intracellular FBP (compared with the control group)", "setting": "C6 [1]", "result": 92.22, "unit": "folds"}, {"measurement": "Increase folds of intracellular GAP (compared with the control group)", "setting": "C6 [1]", "result": 132.85, "unit": "folds"}, {"measurement": "Increase folds of intracellular PGA (compared with the control group)", "setting": "C6 [1]", "result": 2.2, "unit": "folds"}, {"measurement": "Increase folds of intracellular DHAP (compared with the control group)", "setting": "KNS-89", "result": 8.74, "unit": "folds"}, {"measurement": "Increase folds of intracellular F6P (compared with the control group)", "setting": "KNS-89", "result": 1.89, "unit": "folds"}, {"measurement": "Increase folds of intracellular FBP (compared with the control group)", "setting": "KNS-89", "result": 21.97, "unit": "folds"}, {"measurement": "Increase folds of intracellular GAP (compared with the control group)", "setting": "KNS-89", "result": 19.75, "unit": "folds"}, {"measurement": "Increase folds of intracellular PGA (compared with the control group)", "setting": "KNS-89", "result": 3.28, "unit": "folds"}, {"measurement": "Increase folds of intracellular DHAP (compared with the control group)", "setting": "SHG-44 [2]", "result": 12.48, "unit": "folds"}, {"measurement": "Increase folds of intracellular F6P (compared with the control group)", "setting": "SHG-44 [2]", "result": 3.12, "unit": "folds"}, {"measurement": "Increase folds of intracellular FBP (compared with the control group)", "setting": "SHG-44 [2]", "result": 10.74, "unit": "folds"}, {"measurement": "Increase folds of intracellular GAP (compared with the control group)", "setting": "SHG-44 [2]", "result": 21.03, "unit": "folds"}, {"measurement": "Increase folds of intracellular PGA (compared with the control group)", "setting": "SHG-44 [2]", "result": 2.04, "unit": "folds"}, {"measurement": "Increase folds of intracellular DHAP (compared with the control group)", "setting": "U87-MG", "result": 944.4, "unit": "folds"}, {"measurement": "Increase folds of intracellular F6P (compared with the control group)", "setting": "U87-MG", "result": 47.31, "unit": "folds"}, {"measurement": "Increase folds of intracellular FBP (compared with the control group)", "setting": "U87-MG", "result": 149.69, "unit": "folds"}, {"measurement": "Increase folds of intracellular GAP (compared with the control group)", "setting": "U87-MG", "result": 1222.86, "unit": "folds"}, {"measurement": "Increase folds of intracellular PGA (compared with the control group)", "setting": "U87-MG", "result": 3.03, "unit": "folds"}, {"measurement": "Increase folds of intracellular DHAP (compared with the control group)", "setting": "[3]", "result": 4.9, "unit": "folds"}, {"measurement": "Increase folds of intracellular F6P (compared with the control group)", "setting": "[3]", "result": 2.02, "unit": "folds"}, {"measurement": "Increase folds of intracellular FBP (compared with the control group)", "setting": "[3]", "result": 8.27, "unit": "folds"}, {"measurement": "Increase folds of intracellular GAP (compared with the control group)", "setting": "[3]", "result": 7.22, "unit": "folds"}, {"measurement": "Increase folds of intracellular PGA (compared with the control group)", "setting": "[3]", "result": 1.13, "unit": "folds"}, {"measurement": "Increase folds of intracellular DHAP (compared with the control group)", "setting": "[4]", "result": 55.58, "unit": "folds"}, {"measurement": "Increase folds of intracellular F6P (compared with the control group)", "setting": "[4]", "result": 14.12, "unit": "folds"}, {"measurement": "Increase folds of intracellular FBP (compared with the control group)", "setting": "[4]", "result": 22.94, "unit": "folds"}, {"measurement": "Increase folds of intracellular GAP (compared with the control group)", "setting": "[4]", "result": 76.22, "unit": "folds"}, {"measurement": "Increase folds of intracellular PGA (compared with the control group)", "setting": "[4]", "result": 1.86, "unit": "folds"}, {"measurement": "Relative levels of lactic acid (compared with the control group)", "setting": "glioma cells KNS-89; KNS-89, 0.8 mM, 12 h", "result": "0.75 ± 0.11"}, {"measurement": "Relative levels of lactic acid (compared with the control group)", "setting": "glioma cells KNS-89; KNS-89, 0.8 mM, 24 h", "result": "0.94 ± 0.16"}, {"measurement": "Relative levels of lactic acid (compared with the control group)", "setting": "glioma cells KNS-89; KNS-89, 0.8 mM, 36 h", "result": "0.78 ± 0.09"}, {"measurement": "Relative levels of lactic acid (compared with the control group)", "setting": "glioma cells KNS-89; KNS-89, 1.6 mM, 12 h", "result": "0.87 ± 0.03"}, {"measurement": "Relative levels of lactic acid (compared with the control group)", "setting": "glioma cells KNS-89; KNS-89, 1.6 mM, 24 h", "result": "0.83 ± 0.20"}, {"measurement": "Relative levels of lactic acid (compared with the control group)", "setting": "glioma cells KNS-89; KNS-89, 1.6 mM, 36 h", "result": "0.62 ± 0.10"}, {"measurement": "ratio of ATP/ADP (CON = 1.00)", "setting": "C6 [5]; C6, 0.8 mM or 1.6 mM, 36 h", "result": "10.89 ± 1.37"}, {"measurement": "ratio of NADH/NAD+ (CON = 1.00)", "setting": "C6 [5]; C6, 0.8 mM or 1.6 mM, 36 h", "result": "7.76 ± 0.59"}, {"measurement": "ATP level", "setting": "C6 [5]; C6, 36 h, vs control group", "result": "significantly increased"}, {"measurement": "ratio of ATP/ADP (CON = 1.00)", "setting": "SHG-44 [6]; SHG-44, 0.8 mM or 1.6 mM, 36 h", "result": "3.82 ± 0.68"}, {"measurement": "ratio of NADH/NAD+ (CON = 1.00)", "setting": "SHG-44 [6]; SHG-44, 0.8 mM or 1.6 mM, 36 h", "result": "3.40 ± 0.15"}, {"measurement": "ATP level", "setting": "SHG-44 [6]; SHG-44, 36 h, vs control group", "result": "significantly increased"}, {"measurement": "Relative content of GSH (compared with the control group)", "setting": "C6 [7]", "result": "0.69 ± 0.01"}, {"measurement": "Relative content of GSSG (compared with the control group)", "setting": "C6 [7]", "result": "0.06 ± 0.00"}, {"measurement": "Relative ratio of NADPH to NADP+ (compared with the control group)", "setting": "C6 [7]", "result": "0.14 ± 0.01"}, {"measurement": "viability at 800 µM", "setting": "HCT-8; STG 100 μM, read-out: cell viability (Con = 100)", "result": "85.9 ± 3.29", "unit": "%"}, {"measurement": "cytotoxicity at 800 µM", "setting": "HCT-8; sitagliptin 100 μM, read-out: cell viability inhibited", "result": 41, "unit": "%"}, {"measurement": "fat coefficient (epididymal fat pad)", "setting": "[8]; 6 weeks, model group 3.96±0.83%, normal group 1.58±0.68%", "result": "2.81±0.81", "unit": "%"}, {"measurement": "Lee's INDEX", "setting": "[8]; 6 weeks, model group 353.28±9.64, normal group 337.05±9.96", "result": "326.14±11.10"}, {"measurement": "body weight after 6 weeks", "setting": "[8]; agents in drinking water, FBP 300 mg/kg, STG 20 mg/kg, combination FBP 500 mg/kg+STG 20 mg/kg, model group 47.89±3.34", "result": "45.93 ± 5.1", "unit": "g"}, {"measurement": "hind paw retraction latent period (hot plate 52° C.)", "setting": "[9]; 400 mg/kg ig once per day, day 7 and any later time point, vs model group", "result": "significantly longer"}, {"measurement": "efficacy against peripheral neuralgia over treatment duration", "setting": "[9]; high-dose FBP (400 mg/kg)", "result": "gradually disappears"}, {"measurement": "efficacy against peripheral neuralgia over treatment duration", "setting": "[9]; low-dose FBP (200 mg/kg)", "result": "gradually increases"}]}]}
